PubChem BioAssay (NCI)
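Cultured in 96-well plates, cells were exposed to test compound for 48 hours across five concentrations. TGI marks complete inhibition of growth.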

What was measured:
Experiment in all cases: DTP human tumour cell line panel, 48 h
SK-OV-3 ovarian = system: SK-OV-3 ovarian
LXFL 529 NSCLC = system: LXFL 529 NSCLC
COLO 205 colon = system: COLO 205 colon
DMS 273 small cell lung = system: DMS 273 small cell lung
OVCAR-5 ovarian = system: OVCAR-5 ovarian
HOP-92 NSCLC = system: HOP-92 NSCLC
OVCAR-8 ovarian = system: OVCAR-8 ovarian
M19-MEL melanoma = system: M19-MEL melanoma
TK-10 renal = system: TK-10 renal
KM20L2 colon = system: KM20L2 colon
DLD-1 colon = system: DLD-1 colon
RXF 393 renal = system: RXF 393 renal
EKVX NSCLC = system: EKVX NSCLC
HS 578T breast = system: HS 578T breast
PC-3 prostate = system: PC-3 prostate

Structure (SMILES) | TGI (SK-OV-3 ovarian) [µM] | TGI (LXFL 529 NSCLC) [µM] | TGI (COLO 205 colon) [µM] | TGI (DMS 273 small cell lung) [µM] | TGI (OVCAR-5 ovarian) [µM] | TGI (HOP-92 NSCLC) [µM] | TGI (OVCAR-8 ovarian) [µM] | TGI (M19-MEL melanoma) [µM] | TGI (TK-10 renal) [µM] | TGI (KM20L2 colon) [µM] | TGI (DLD-1 colon) [µM] | TGI (RXF 393 renal) [µM] | TGI (EKVX NSCLC) [µM] | TGI (HS 578T breast) [µM] | TGI (PC-3 prostate) [µM]
CCCCCCCCOCC(COC(=O)CCCCCCC)OC(=O)CCCCCCC (stereo not drawn) | > 100 | > 100 | > 100 | > 100 | > 100 | > 100 | > 100 | > 100 | > 100 | > 100 | > 100 |  |  |  | 
O=C(c1ccccc1)C1(Br)S(=O)(=O)OCCOS1(=O)=O | > 100 | > 100 | > 100 | > 100 | > 100 | > 100 | > 100 | > 100 | > 100 | > 100 | > 100 | > 100 | > 100 |  | 
CCOC(=O)C1S(=O)(=O)OCCOS1(=O)=O | > 100 | > 100 | > 100 | > 100 |  | > 100 | > 100 | > 100 | > 100 |  | > 100 |  | > 100 |  | 
CC(C)(CN1CCCCC1)C(=O)/C=C/c1ccc(Br)cc1 | 8.18 | 3.52 | 5.56 | 4.92 | 11.8 | 4.1 | 6.98 | > 51.8 | 10.2 | 6.85 | 10.3 | 4.48 | 9.13 |  | 
C1CCC(N=C2N(C3CCCCC3)C(=NC3CCCCC3)N2C2CCCCC2)CC1 | > 100 | > 100 | > 100 | > 100 | > 100 | > 100 | > 100 | > 100 | > 100 | > 100 | > 100 | > 100 | > 100 |  | 
O=C1c2ccccc2N2OC3(N4CCOCC4)CCCC3C12c1ccccc1 (stereo not drawn) | > 100 | > 100 | > 100 | > 100 |  | > 100 | > 100 | > 100 |  | > 100 | > 100 | > 100 | > 100 |  | 
CCOC(=O)/C(=C/c1ccccn1)C(=O)c1ccccc1 | 36.7 | 23.5 | 28.3 | 27.3 | 33.5 | 21.1 | 31.4 | 31.3 | 32.3 | 51.6 | 29.5 | 24.2 | 42.8 |  | 
NNC(=O)C(=O)NN=C(C(Cl)(Cl)CO)C(Cl)(Cl)CO | > 100 | > 100 | > 100 | > 100 | 92.2 | 83.7 | 57.9 | 46.8 | > 100 | > 100 | 57.4 | 72.7 | > 100 |  | 
COc1ccc2ccccc2c1C1=NC(C)(C)CO1 | > 100 | > 100 | > 100 |  |  | > 100 | > 100 | > 100 | > 100 | > 100 | > 100 | > 100 | > 100 |  | 
CC(=O)OC1COC(N2CCc3cc([N+](=O)[O-])ccc32)C(OC(C)=O)C1OC(C)=O (stereo not drawn) | > 100 | > 100 | > 100 | > 100 |  | > 100 | > 100 | > 100 | > 100 | > 100 | > 100 | > 100 | > 100 |  | 
COc1cc2nc(Cl)nc(NS(=O)(=O)c3cc4ccccc4s3)c2cc1OC | 98.5 |  | > 100 |  | 50 | 46.8 | > 100 |  | > 100 |  |  | 37.9 | 66.5 | > 100 | 75.6
COc1ccc(-c2oc3cc(-c4cc5oc(-c6ccc(OC)cc6)c(-c6ccc(OC)cc6)c5cc4OC)c(OC)cc3c2-c2ccc(OC)cc2)cc1 | > 100 |  | > 100 |  | > 100 | > 100 | > 100 |  | > 100 |  |  | > 100 | > 100 | > 100 | > 100
COC(=O)C(C(=O)C(=O)Nc1c(Cl)cc([N+](=O)[O-])cc1Cl)c1csc(-n2nc(C3=CCCCC3)cc2-c2ccccc2)n1 (stereo not drawn) | > 100 | > 100 | > 100 | > 100 | > 100 | 77.7 | > 100 | > 100 | > 100 | > 100 | > 100 | > 100 | 94.7 |  | 
